Where “and” joins values, the source holds several entries; their conditions need not be identical. Identical values can stand only once. Residues, ends and D or L forms follow the SMILES beside them.
Legend:
[1] = tested on: rats; assay: ECG parameters of cardiac function in Nembutal-anesthetized rats
Experimental: White random-bred male rats weighing about 200 g were anesthetized using Nembutal. A basal ECG was taken as soon as possible following anesthetization to establish basal measurements for the principal parameters of cardiac functions. Rats showing any deviation from normal ECG parameters were excluded from the study.
Each dose of each test substance was evaluated on a separate experimental group consisting of 10 rats. ECG traces (no less than 4 complexes each) were taken at 1, 3, 5, and 10 minutes after the injection of the test substance. Physiological saline served as the negative control substance. To each animal in the negative control group, 2 ml of physiological saline was injected intravenously.
Cardiac function was evaluated by monitoring the following ECG parameters:
(iv) the duration of the QT interval (which defines the time from the beginning of the QRS complex to the end of the T wave and reflects the duration of ventricular depolarization and repolarization). The normal value for this parameter for Nembutal-anesthetized rats is 50 to 106 ms using lead II ECG.

[2] = tested on: ischemic myocardium; assay: Inotropic function and arrhythmias of ischemic isolated rat heart during reperfusion; details: 0.06-6.0 mg/l
Source text: Rat hearts were surgically isolated from white random-bred rats weighing approximately 250 g. The isolated hearts were perfused with a standard oxygenated (95% O2 and 5% CO2) Krebs-Henseleit solution in a retrograde manner (i.e., according to Langendorff and using a constant perfusate pressure of 80 cm of water). The hearts maintained a steady spontaneous contraction rate. A latex balloon catheter connected to a pressure transducer (EMT-746, Siemens-Elema, Sweden) was inserted into the left ventricle of each heart to measure the inotropic function of the heart (as described in Example 3, above). The left ventricle pressure variation curve was recorded using a polygraph.
Stage I ("adaptation regimen") consisted of a 30-minute adaptation of the respective rat hearts to the perfusion regimen. The baseline parameters for the inotropic function of each heart were recorded to establish the preischemic values for the following measured parameters: (i) the systolic pressure in the left ventricle (Psyst. mm Hg); (ii) the diastolic pressure in the left ventricle (Pdiast. mm Hg); (iii) the evolving pressure (Pev. =Psyst. -Pdist. mm Hg); (iv) the maximal rate of increase of left ventricle pressure (+dp/dtmax mm Hg/sec); and (v) the maximal rate of decrease of left ventricle pressure (-dp/dtmax mm Hg/sec). In addition, the heart rate (HR) of each heart was determined from the recordings made of the variations in the left ventricle pressure over time. In Stage II ("ischemic simulation"), ischemia was induced in each heart by shutting off the supply of the perfusion solution to the heart. Approximately 30 minutes later, Stage III ("reperfusion regimen") was initiated by restarting the reperfusion and including in the perfusate solution a test or control substance at one of the following respective concentrations: a perfusate solution of a test substance comprised 0.06, 0.6, or 6.0 mg/l GE, or 0.06, 0.6, or 6.0 mg/l VT, respectively; a perfusate solution of the positive control substance comprised 14 mg/l inosine. Inosine is a nucleoside preparation that produces a favorable inotropic effect on both normal and ischemic myocardium while inducing no rhythm disturbances or acceleration of ischemic contracture development. Woollard et al., Cardiovasc. Res. 15: 659-67 (1981). Inosine was obtained from Sigma Chemical Company, USA (Cat. Code I-4125; lot number 81H0227). The negative control substance comprised reperfusion using a standard oxygenated Krebs-Henseleit solution.
For each heart, the inotropic function of the myocardium was evaluated by measuring the parameters (i) through (v), discussed above, and the heart rate. These six parameters were recorded continuously throughout the study (i.e., beginning with Stage I and continuing through Stage III). The recordings were analyzed at the following times: (a) immediately before beginning Stage II (that is, after the 30-minute Stage I adaptation period, but before stopping perfusion); and (b) at 1, 5, 10, 20, and 30 minutes into the Stage III reperfusion.
The frequency and duration of rhythm disturbances in the 30-minute Stage III reperfusion period were determined by measuring the following parameters: (i) the number of ventricular extrasystoles; (ii) the overall duration of ventricular tachycardias (in seconds); and (iii) the overall duration of ventricular fibrillation (in seconds). Each dose of the test substance was tested on nine isolated hearts.

[3] = tested on: Intestinal Smooth Muscle; assay: Calcium-induced contraction of intestinal smooth muscle specimens; format: cell-based, guinea pigs; details: 20 mM CaCl2
Experimental: GE and VT served as test substances in this experiment. GE was tested at concentrations of 10^-6 g/ml and 10^-5 g/ml (4.9×10^-6 M and 4.9×10^-5 M, respectively), and VT was tested at concentrations 10^-6 g/ml and 10^-5 g/ml (4.58×10^-6 and 4.58×10^-5 M, respectively).
Small intestinal SMS samples from ten guinea pigs were surgically isolated and prepared as follows. First, the SMS samples were preincubated for 40 minutes in an organ bath holding a standard Krebs-Henseleit physiological salt solution containing calcium chloride (CaCl2) at concentration of 2.5 mM. Next, each SMS was washed with a calcium-free solution of Krebs-Henseleit and incubated in a calcium-free Krebs-Henseleit solution for 40 minutes. Contractile activity was pre-induced in each SMS by first perfusing the organ bath containing the sample for 15 minutes with a Krebs-Henseleit solution containing 30 mM KCl and then perfusing the bath for an additional 15 minutes with a Krebs-Henseleit solution containing 20 mM CaCl2. Finally, each SMS sample was washed with a calcium-free Krebs-Henseleit solution for 40 minutes. In these experiments, measurements of the contractile response of the SMS following the addition of a Krebs-Henseleit solution containing 20 mM calcium served as the control (baseline). Changes in contraction amplitudes were recorded by using the method set forth in Step 1 of Example 2, above.
After washing the SMS as outlined in Step 1, the organ bath with the SMS sample was perfused for 15 minutes with the solution of a test or reference substance. In this instance, GE and VT served as the test substances, and each dipeptide was tested at a concentration of 10^-6 g/ml.
Following perfusion with the test or reference substance, the SMS sample/organ bath was perfused for 10 minutes with a Krebs-Henseleit solution containing 30 mM KCl and then perfused for an additional 10 minutes with a Krebs-Henseleit solution containing 20 mM CaCl2. Next, each SMS sample was washed with a calcium-free Krebs-Henseleit solution for 40 minutes. The effect of the test or reference substance on the SMS sample was evaluated by measuring the contractile response (i.e., the change in contraction amplitude) of the sample following the addition of the Krebs-Henseleit solution containing 20 mM CaCl2.
Next, the organ bath was perfused for 10 minutes with a Krebs-Henseleit solution containing 30 mM KCl and then for additional 10 minutes with a Krebs-Henseleit solution containing 20 mM CaCl2. The effect of the respective test or reference substance was evaluated a second time by measuring the change in the contraction amplitude of the SMS following the addition of the Krebs-Henseleit solution containing 20 mM CaCl2. […]

[4] = tested on: Smooth Muscle Cells of Rat Portal Vein; assay: Spontaneous contractile activity of rat portal vein smooth muscle specimens; format: cell-based; details: 5×10^-7 g/ml
Experimental: Rat portal vein SMS samples were surgically isolated from random bred rats weighing 200-250 g. The suitability of each isolated rat portal vein SMS was established by measuring the spontaneous contraction response and its contractile response of the specimen to potassium chloride (KCl) as follows. Each isolated SMS was placed into an organ bath with standard Krebs-Henseleit (KH) solution at 35° C. Then, 0.5 ml of physiological saline were added into the organ bath. In this procedure, one end of the smooth muscle strip was fixed, while the other end of the muscle strip was connected with a probe which transmitted contraction-induced signals to an analog-to-digital converter. The spontaneous contraction curve for each SMS was recorded by taking repeated measurements over a 1-minute period. Next, 0.5 ml of a 600 mM solution of KCl in physiological saline was added to the SMS sample/organ bath to achieve a final concentration of 60 mM KCl. KCl induces contraction of rat portal vein tissue at a fmal tissue concentration of about 60 mM.
The KCl-induced contraction curve for each specimen sample was then recorded over the next 5-minute period. […] During this stabilization period, the spontaneous contraction curve for each SMS was verified by monitoring the data obtained from analog-to-digital converter.
To each SMS in the organ bath prepared according to Steps 2 and 3 above, 0.5 ml of physiological saline was added, and the spontaneous contraction curve was recorded for 1 minute. Each spontaneous contraction curve served as baseline (control) curve for comparison with the respective spontaneous contraction of each SMS in the presence of a test substance or reference substance.
Spontaneous contraction curve values for each SMS were recorded by making repetitive measurements of the spontaneous contractile activity of each sample at 2, 5, 10, and 15 minutes after the addition of the test or reference substance to each SMS/organ bath. Next, 0.5 ml of a solution of 600 mM solution of KCl in […] in the organ bath until a final concentration of 60 mM KCl was achieved. The contractile activity of each SMS was then measured for 5 minutes.

[5] = tested on: mice; assay: Chloroform-induced arrhythmia; format: in vivo; details: 240 mg/kg i.p. 15 min before chloroform
Experimental: Each mouse in the study was treated by intraperitoneal injection of a dose of a test or control substance 15 minutes prior to the administration of a deep chloroform anesthesia. A test or control substance was then administered to each mouse. […] Novocainamide, a known antiarrhythmic agent, served as the positive control substance and was administered to mice in the positive control group at a dose of 240 mg/kg. Physiological saline served as the negative control substance and was administered to the mice in the negative control group.
Chloroform anesthesia was administered to each mouse by placing the mouse in an airtight glass container with cotton wool soaked in 20 ml of absolute chloroform. At the moment of respiratory arrest, the mouse was removed from the jar and electrocardiogram (ECG) monitoring (standard lead II) was initiated and continued for 30 seconds. […] An antiarrhythmic activity for a particular dose of a test substance is pharmaceutically acceptable if 30% of the animals in a test group show the latter test results (i.e., namely, no sign of ventricular paroxysmal rhythm disturbances and heart rate below 100 beats per 30 seconds within 30 seconds following the respiratory arrest).

CC(C)[C@H](N)C(=O)N[C@H](C(=O)O)[C@@H](C)O [VT, L-Valine-L-Threonine] (H-Val-Thr-OH)
Duration of QT Interval (% of Initial Mean Value) ([1]; 0.001 mg/kg i.v., 1 min): 101.80%
Duration of QT Interval (% of Initial Mean Value) ([1]; 0.001 mg/kg i.v., 3 min): 105.73%
Duration of QT Interval (% of Initial Mean Value) ([1]; 0.001 mg/kg i.v., 5 min): 102.20%
Duration of QT Interval (% of Initial Mean Value) ([1]; 0.001 mg/kg i.v., 10 min): 101.24%
Duration of QT Interval (% of Initial Mean Value) ([1]; 0.01 mg/kg i.v., 1 min): 99.86%
Duration of QT Interval (% of Initial Mean Value) ([1]; 0.01 mg/kg i.v., 3 min): 101.48%
Duration of QT Interval (% of Initial Mean Value) ([1]; 0.01 mg/kg i.v., 5 min): 101.09%
Duration of QT Interval (% of Initial Mean Value) ([1]; 0.01 mg/kg i.v., 10 min): 97.32%
Duration of QT Interval (% of Initial Mean Value) ([1]; 0.1 mg/kg i.v., 1 min): 102.97%
Duration of QT Interval (% of Initial Mean Value) ([1]; 0.1 mg/kg i.v., 3 min): 98.39%
Duration of QT Interval (% of Initial Mean Value) ([1]; 0.1 mg/kg i.v., 5 min): 95.65%
Duration of QT Interval (% of Initial Mean Value) ([1]; 0.1 mg/kg i.v., 10 min): 90.67%
Duration of QT Interval (% of Initial Mean Value) ([1]; 1.0 mg/kg i.v., 1 min): 105.57%
Duration of QT Interval (% of Initial Mean Value) ([1]; 1.0 mg/kg i.v., 3 min): 105.58%
Duration of QT Interval (% of Initial Mean Value) ([1]; 1.0 mg/kg i.v., 5 min): 102.18%
Duration of QT Interval (% of Initial Mean Value) ([1]; 1.0 mg/kg i.v., 10 min): 101.18%
Duration of QT Interval (% of Initial Mean Value) ([1]; 10.0 mg/kg i.v., 1 min): 94.89% and 102.97%
Duration of QT Interval (% of Initial Mean Value) ([1]; 10.0 mg/kg i.v., 3 min): 95.91% and 105.82%
Duration of QT Interval (% of Initial Mean Value) ([1]; 10.0 mg/kg i.v., 5 min): 96.52% and 103.51%
Duration of QT Interval (% of Initial Mean Value) ([1]; 10.0 mg/kg i.v., 10 min): 88.88% and 104.78%
Duration of QT Interval (% of Initial Mean Value) ([1]; 100.0 mg/kg i.v., 1 min): 100.00% and 96.62%
Duration of QT Interval (% of Initial Mean Value) ([1]; 100.0 mg/kg i.v., 3 min): 100.82% and 100.45%
Duration of QT Interval (% of Initial Mean Value) ([1]; 100.0 mg/kg i.v., 5 min): 97.96% and 99.74%
Duration of QT Interval (% of Initial Mean Value) ([1]; 100.0 mg/kg i.v., 10 min): 94.74% and 102.25%
arrhythmogenic effect during reperfusion [2]: Neither GE nor VT was found to have an arrhythmogenic effect

COc1ccc([C@@H]2Sc3ccccc3N(CCN(C)C)C(=O)[C@@H]2OC(C)=O)cc1 [Diltiazem, diltiazem]
Contraction Amplitude, calcium-induced (% of control level) ([3]; Application I, 10^-9 g/ml): 39.02%
Contraction Amplitude, calcium-induced (% of control level) ([3]; Application II, 10^-8 g/ml): 12.95%

COc1ccc(CCN(C)CCCC(C#N)(c2ccc(OC)c(OC)c2)C(C)C)cc1OC (stereo not shown) [Verapamil, reference compound]
Amplitude of spontaneous contraction (% of Control) ([4]; 2 min after application): 95.82%
Area Under Curve of spontaneous contraction (% of Control) ([4]; 2 min after application): 82.41%
Amplitude of spontaneous contraction (% of Control) ([4]; 5 min after application): 78.58%
Area Under Curve of spontaneous contraction (% of Control) ([4]; 5 min after application): 62.11%
Amplitude of spontaneous contraction (% of Control) ([4]; 10 min after application): 60.79%
Area Under Curve of spontaneous contraction (% of Control) ([4]; 10 min after application): 49.83%
Amplitude of spontaneous contraction (% of Control) ([4]; 15 min after application): 37.92%
Area Under Curve of spontaneous contraction (% of Control) ([4]; 15 min after application): 35.13%

CCN(CC)CCNC(=O)c1ccc(N)cc1 [Novocainamide, reference compound]
Antiarrhythmic Effect (no. animals) % [5]: 77.8%
Antiarrhythmic Effect (no. animals) abs [5]: 7
Result [5]: Antiarrhythmic effect

CN1[C@@H]2CC[C@H]1C[C@@H](OC(=O)C(CO)c1ccccc1)C2 (stereo partly shown) [Atropine, atropine]
Contraction Amplitude, calcium-induced (% of control level) ([3]; Application I, 10^-7 g/ml): 39.57%
Contraction Amplitude, calcium-induced (% of control level) ([3]; Application II, 10^-6 g/ml): 25.08%

Reference: patent US5972894A, “Peptides having potassium channel opener activity” (Cytran, Inc., priority 1997, dated 1999)
